The text below walks through data of US20240158446A1, “CYCLIC COMPOUND HAVING SELECTIVE INHIBITORY ACTION ON KRAS OVER HRAS AND NRAS” (CHUGAI SEIYAKU KABUSHIKI KAISHA, priority 2021, published 2024).

Where a SMILES comes first, the peptide text is derived from it. Bridges are numbered along the chain shown (N, C = ends). [ ]: non-standard residue; d: D form. The star is where a group is joined. hPhe(3-Cl-4-CF3) = N[C@@H](CCc1ccc(C(F)(F)F)c(Cl)c1)C(=O)O; NPrPhe(4-CF3) = CCCN[C@@H](Cc1ccc(C(F)(F)F)cc1)C(=O)O; NMeGly(cPent) = CN[C@H](C(=O)O)C1CCCC1; Ac4c(3,3-Me2) = CC1(C)CC(N)(C(=O)O)C1; NMeI = CC[C@H](C)[C@H](NC)C(=O)O; NMeD = CN[C@@H](CC(=O)O)C(=O)O; NMeL = CN[C@@H](CC(C)C)C(=O)O; Morpholide = C1CN(*)CCO1; Ac5c = NC1(C(=O)O)CCCC1; Sar = CNCC(=O)O; Propyl = CCC*

In assay [1] the target is GDP-bound KRAS wild-type protein (Homo sapiens, UniProt P01116). Kind of assay: Binding to KRAS by surface plasmon resonance (SPR), Single Cycle Kinetics. The note with it: SPR, Single Cycle Kinetics, GDP-bound KRAS wild-type protein; read-out: KRAS KD. On the technique in general: Surface plasmon resonance follows binding to a sensor surface in real time, without labels.
GDP-bound KRAS wild-type protein, sequence (P01116 whole entry): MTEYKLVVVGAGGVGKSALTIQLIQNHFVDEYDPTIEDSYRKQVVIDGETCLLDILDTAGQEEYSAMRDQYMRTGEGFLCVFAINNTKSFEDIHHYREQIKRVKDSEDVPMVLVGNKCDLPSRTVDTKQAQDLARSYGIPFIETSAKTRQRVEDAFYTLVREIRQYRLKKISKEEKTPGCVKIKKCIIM

The target of assay [2] is GDP-bound HRAS wild-type protein (Homo sapiens, UniProt P01112). Kind of assay: Binding to HRAS by surface plasmon resonance (SPR), Single Cycle Kinetics. The note with it: ratio of KD for GDP-bound HRAS wild-type protein to KD for KRAS, SPR.
GDP-bound HRAS wild-type protein, sequence (P01112 whole entry): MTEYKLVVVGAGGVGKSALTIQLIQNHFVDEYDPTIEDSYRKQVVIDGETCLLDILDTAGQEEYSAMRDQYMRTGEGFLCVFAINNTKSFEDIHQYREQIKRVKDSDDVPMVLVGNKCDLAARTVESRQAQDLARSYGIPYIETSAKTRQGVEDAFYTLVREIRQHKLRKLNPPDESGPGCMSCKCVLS
For assay [3], the target named is GDP-bound NRAS wild-type protein (Homo sapiens, UniProt P01111). As to the kind of experiment: Binding to NRAS by surface plasmon resonance (SPR), Single Cycle Kinetics. To be noted: ratio of KD for GDP-bound NRAS wild-type protein to KD for KRAS, SPR.
GDP-bound NRAS wild-type protein, sequence (P01111 whole entry): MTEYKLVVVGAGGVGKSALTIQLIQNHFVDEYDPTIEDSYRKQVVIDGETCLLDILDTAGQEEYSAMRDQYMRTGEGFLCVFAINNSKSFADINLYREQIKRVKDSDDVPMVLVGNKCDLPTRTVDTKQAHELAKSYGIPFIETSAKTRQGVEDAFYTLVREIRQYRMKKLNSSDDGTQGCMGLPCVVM
In assay [4] the test system is human lung cancer strain NCI-H441. Kind of assay: cells. To be noted: NCI-H441, 96 h, read-out: NCI-H441 IC50 (nM), NCI-H441 cell proliferation, 4 days, CellTiter-Glo. In general terms: Cellular ATP, detected with luciferase, serves as a proxy for viable cell number.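 Also: cell proliferation inhibition after four days measured by CellTiter-Glo.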

A word on the Kd: it is the constant that tells how readily two partners part at equilibrium. For `CCCN(C)C(=O)[C@@H]1CC(=O)N(C)[C@@H](COCC)C(=O)N[C@@H]([C@@H](C)CC)C(=O)N(C)CC(=O)N(C)[C@H]2C/C=C\CCN(C2=O)[C@@H](Cc2ccc(C(F)(F)F)cc2)C(=O)N(C)CC(=O)N[C@@H](CCc2ccc(C(F)(F)F)c(OC)c2)C(=O)N2C[C@H](OCC)C[C@H]2C(=O)NC2(CCC2)C(=O)N(C)[C@@H](C2CCCC2)C(=O)N1C` [PP2015], the dissociation constant (Kd) in assay [1] is 0.11 nM. The “HRAS/KRAS (KD ratio)” value in assay [2] was “B (a compound having 3 or more and less than 10 is denoted as B)”. Further, in assay [3], the “NRAS/KRAS (KD ratio)” value was “A (a compound having 10 or more and less than 20 is denoted as A)”. Also, the IC50 in assay [4] is 5.6 nM.
For the compound `CC[C@H](C)[C@@H]1NC(=O)[C@H](CC2CC2)N(C)C(=O)C[C@@H](C(=O)N(C)C)N(C)C(=O)[C@H](C2CCCC2)N(C)C(=O)C2(CC(C)(C)C2)NC(=O)[C@@H]2C[C@H](C)CN2C(=O)[C@H](CCc2cc(F)c(C(F)(F)F)c(F)c2)NC(=O)CN(C)C(=O)[C@H](Cc2ccc(C(F)(F)F)cc2)N2CC/C=C\C[C@@H](C2=O)N(C)C(=O)CN(C)C1=O` [PP1660], in assay [1], the Kd turned out to be 0.11 nM. Also, in assay [2], the “HRAS/KRAS (KD ratio)” value was “A (a compound having 10 or more and less than 20 is denoted as A)”. In addition, in assay [3], the “NRAS/KRAS (KD ratio)” value is “A (a compound having 10 or more and less than 20 is denoted as A)”. Besides, the IC50 in assay [4] was 4.3 nM.
For `CC[C@H](C)[C@@H]1NC(=O)[C@H](CC2CC2)N(C)C(=O)C[C@@H](C(=O)N(C)C)N(C)C(=O)[C@H](C2CCCC2)N(C)C(=O)C2(CCC2)N(C)C(=O)[C@@H]2CCCN2C(=O)[C@H](CCc2cc(F)c(C(F)(F)F)c(F)c2)NC(=O)CN(C)C(=O)[C@H](Cc2ccc(C)cc2)N2CC/C=C\C[C@@H](C2=O)N(C)C(=O)[C@@H]2CCCN2C1=O` [PP1798], the dissociation constant Kd in assay [1] was found to be 0.15 nM. Also, the “HRAS/KRAS (KD ratio)” value in assay [2] is “B (a compound having 3 or more and less than 10 is denoted as B)”. The “NRAS/KRAS (KD ratio)” value in assay [3] is “A (a compound having 10 or more and less than 20 is denoted as A)”. Moreover, the IC50 in assay [4] came out at 7.8 nM.
As for `CCCO[C@H](C)[C@@H]1NC(=O)[C@H](CC(C)C)N(C)C(=O)C[C@@H](C(=O)N2CCOCC2)N(C)C(=O)[C@H](C2CCCC2)N(C)C(=O)C2(CC(C)(C)C2)NC(=O)[C@@H]2CCCN2C(=O)[C@H](CCc2ccc(C(F)(F)F)c(Cl)c2)NC(=O)CN(C)C(=O)[C@H](Cc2ccc(C(F)(F)F)cc2)N(CCC)C(=O)CN(C)C(=O)CN(C)C1=O` [PP1965] ([NMeL]T(Propyl)[Sar][Sar][NPrPhe(4-CF3)][Sar][hPhe(3-Cl-4-CF3)]P[Ac4c(3,3-Me2)][NMeGly(cPent)][NMeD]-Morpholide; lactam N-11), the Kd in assay [1] came to 0.3 nM. For the same compound, the “HRAS/KRAS (KD ratio)” value in assay [2] is “B (a compound having 3 or more and less than 10 is denoted as B)”. Also, the “NRAS/KRAS (KD ratio)” value in assay [3] is “B (a compound having 3 or more and less than 10 is denoted as B)”. Also, in assay [4], the IC50 was 17.4 nM.
Turning to `CCC[C@H]1C(=O)N[C@@H]([C@@H](C)CC)C(=O)N2CC[C@H]2C(=O)N(C)[C@H]2C/C=C\CCN(C2=O)[C@@H](Cc2ccc(C(F)(F)F)cc2)C(=O)N(C)CC(=O)N[C@@H](CCc2cc(F)c(C(F)(F)F)c(F)c2)C(=O)N2C[C@H](OCC)C[C@H]2C(=O)NC2(CC(C)(C)C2)C(=O)N(C)[C@@H](C2CCCC2)C(=O)N(C)[C@H](C(=O)N(C)C)CC(=O)N1C` [PP1925], the Kd in assay [1] is 0.23 nM. The “HRAS/KRAS (KD ratio)” value in assay [2] was “A (a compound having 10 or more and less than 20 is denoted as A)”. Moreover, the “NRAS/KRAS (KD ratio)” value in assay [3] was “A (a compound having 10 or more and less than 20 is denoted as A)”. The IC50 in assay [4] came to 9.7 nM.
For the compound `CC[C@H](C)[C@@H]1NC(=O)[C@H](CC(C)C)N(C)C(=O)C[C@@H](C(=O)N(C)CC)N(C)C(=O)[C@H](C2CCCC2)N(C)C(=O)C2(CC(C)(C)C2)NC(=O)[C@@H]2C[C@H](C)CN2C(=O)[C@H](CCc2ccc(C(F)(F)F)c(OC)c2)NC(=O)CN(C)C(=O)[C@H](Cc2ccc(C)cc2)N2CC/C=C\C[C@@H](C2=O)N(C)C(=O)CN(C)C1=O` [PP1906], the Kd in assay [1] amounted to 0.15 nM. Further, the “HRAS/KRAS (KD ratio)” value in assay [2] is “A (a compound having 10 or more and less than 20 is denoted as A)”. The “NRAS/KRAS (KD ratio)” value in assay [3] is “A (a compound having 10 or more and less than 20 is denoted as A)”. For the same compound, the IC50 in assay [4] turned out to be 10.8 nM.
Take `CCO[C@@H]1C[C@H]2C(=O)N(C)C3(CCCC3)C(=O)N(C)[C@@H](C3CCCC3)C(=O)N(C)[C@H](C(=O)N(C)C)CC(=O)N(C)[C@@H](C3CC3)C(=O)N[C@@H]([C@@H](C)CC)C(=O)N(C)CC(=O)N(C)[C@H]3C/C=C\CCN(C3=O)[C@@H](Cc3ccc(C)cc3)C(=O)N(C)CC(=O)N[C@@H](CCc3cc(F)c(C(F)(F)F)c(F)c3)C(=O)N2C1` [PP1808]: the dissociation constant (Kd) in assay [1] turned out to be 0.084 nM. The “HRAS/KRAS (KD ratio)” value in assay [2] is “B (a compound having 3 or more and less than 10 is denoted as B)”. Further, the “NRAS/KRAS (KD ratio)” value in assay [3] is “A (a compound having 10 or more and less than 20 is denoted as A)”. In assay [4], the IC50 is 8.8 nM.
With `CCO[C@@H]1C[C@H]2C(=O)NC3(CCC3)C(=O)N(C)[C@@H](C3CCCC3)C(=O)N(C)[C@H](C(=O)N(C)C)CC(=O)N(CC)[C@@H](CC(C)C)C(=O)N[C@@H]([C@@H](C)CC)C(=O)N(C)CC(=O)N(C)[C@H]3C/C=C\CCN(C3=O)[C@@H](Cc3ccc(C(F)(F)F)cc3)C(=O)N(C)CC(=O)N[C@@H](CCc3cc(F)c(C(F)(F)F)c(F)c3)C(=O)N2C1` [PP1765], the dissociation constant (Kd) in assay [1] came out at 0.084 nM. Further, the “HRAS/KRAS (KD ratio)” value in assay [2] was “A (a compound having 10 or more and less than 20 is denoted as A)”. Also, in assay [3], the “NRAS/KRAS (KD ratio)” value is “A (a compound having 10 or more and less than 20 is denoted as A)”. For the same compound, in assay [4], the IC50 was determined as 16.8 nM.
In the case of `CCCN1C(=O)CN(C)C(=O)CN(C)C(=O)[C@H]([C@@H](C)CC)NC(=O)[C@H](CC(C)C)N(C)C(=O)C[C@@H](C(=O)N2CCOCC2)N(C)C(=O)[C@H]([C@@H](C)CC)N(C)C(=O)C2(CCCC2)NC(=O)[C@@H]2CCCN2C(=O)[C@H](CCc2ccc(C(F)(F)F)c(Cl)c2)NC(=O)CN(C)C(=O)[C@@H]1Cc1ccc(C(F)(F)F)cc1` [PP1926] ([NMeL]I[Sar][Sar][NPrPhe(4-CF3)][Sar][hPhe(3-Cl-4-CF3)]P[Ac5c][NMeI][NMeD]-Morpholide; lactam N-11), in assay [1], the Kd came to 0.36 nM. Also, the “HRAS/KRAS (KD ratio)” value in assay [2] was “B (a compound having 3 or more and less than 10 is denoted as B)”. The “NRAS/KRAS (KD ratio)” value in assay [3] was “B (a compound having 3 or more and less than 10 is denoted as B)”. For the same compound, the IC50 in assay [4] is 17.4 nM.
On to `CCC[C@H]1C(=O)N[C@@H]([C@@H](C)CC)C(=O)N(C)CC(=O)N(C)[C@H]2C/C=C\CCN(C2=O)[C@@H](Cc2ccc(C(F)(F)F)cc2)C(=O)N(C)CC(=O)N[C@@H](CCc2cc(F)c(C(F)(F)F)c(F)c2)C(=O)N(C)[C@@H](C)C(=O)NC2(CC(C)(C)C2)C(=O)N(C)[C@@H](C2CCCC2)C(=O)N(C)[C@H](C(=O)N(C)C)CC(=O)N1C` [PP1934], for which, in assay [1], the dissociation constant (Kd) was 0.72 nM. For the same compound, the “HRAS/KRAS (KD ratio)” value in assay [2] is “A (a compound having 10 or more and less than 20 is denoted as A)”. In addition, the “NRAS/KRAS (KD ratio)” value in assay [3] was “A (a compound having 10 or more and less than 20 is denoted as A)”. Moreover, in assay [4], the IC50 was 68.5 nM.
